Measurements taken from ChEMBL document CHEMBL1201862, “PubChem BioAssay data set” (2004).
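Growth conditions: 96-well plates. Treatment: test compound, 48 hours, 5 concentrations. Analysis: linear interpolation between bracketing concentrations; unreached endpoints set to highest concentration. Here, GI50 denotes the concentration required for 50% inhibition of growth.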 The source made the active and inactive calls. Cut-off read from the data, not from the text of the source: active = GI50 up to about 1.1 µM and inactive = higher.

What was measured:
Experiment in all cases: NCI-60 cell line screen, 48 h
[1] = system: BT-549
[2] = system: CAKI-1
[3] = system: HT-29
[4] = system: MDA-MB-435
[5] = system: RXF 393
[6] = system: Malme-3M
[7] = system: OVCAR-8
[8] = system: Hs-578T
[9] = system: UACC-62
[10] = system: SF-268
[11] = system: 786-0
[12] = system: UO-31
[13] = system: MDA-N
[14] = system: MCF7
[15] = system: T47D
[16] = system: SK-OV-3
[17] = system: OVCAR-5
[18] = system: SN12C
[19] = system: COLO 205
[20] = system: SNB-75
[21] = system: ACHN
[22] = system: SNB-19
[23] = system: NCI-H460
[24] = system: HCT-116
[25] = system: EKVX
[26] = system: RPMI-8226
[27] = system: HL-60
[28] = system: UACC-257
[29] = system: K562
[30] = system: A498
[31] = system: NCI-H226
[32] = system: LOX IMVI
[33] = system: NCI-H23
[34] = system: MOLT-4
[35] = system: SF-539
[36] = system: MDA-MB-231
[37] = system: SK-MEL-5
[38] = system: HOP-62
[39] = system: DU-145
[40] = system: IGROV-1
[41] = system: HCT-15
[42] = system: OVCAR-4
[43] = system: OVCAR-3
[44] = system: HOP-92
[45] = system: SK-MEL-28
[46] = system: CCRF-CEM
[47] = system: U-251
[48] = system: PC-3
[49] = system: NCI-H522
[50] = system: NCI/ADR-RES
[51] = system: M14
[52] = system: KM12
[53] = system: SR
[54] = system: TK-10
[55] = system: SF-295
[56] = system: SK-MEL-2
[57] = system: A549
[58] = system: HCC 2998
[59] = system: SW-620

With `CC(C)C(O)(C(C)C)C(C)C` the GI50 [1] was > 100 µM (inactive), the GI50 [2] was > 100 µM (inactive) and the GI50 [3] was > 100 µM (inactive). For the same compound, the GI50 [4] was > 100 µM (inactive), the GI50 [5] was > 100 µM (inactive) and the GI50 [6] was > 100 µM (inactive). For the same compound, the GI50 [7] was > 100 µM (inactive), the GI50 [8] was > 100 µM (inactive) and the GI50 [9] was > 100 µM (inactive). For the same compound, the GI50 [10] was > 100 µM (inactive), the GI50 [11] was > 100 µM (inactive) and the GI50 [12] was > 100 µM (inactive). The GI50 [13] was > 100 µM (inactive), the GI50 [14] was > 100 µM (inactive) and the GI50 [15] was > 100 µM (inactive). The GI50 [16] was > 100 µM (inactive), the GI50 [17] was > 100 µM (inactive) and the GI50 [18] was > 100 µM (inactive). The GI50 [19] was > 100 µM (inactive), the GI50 [20] was > 100 µM (inactive) and the GI50 [21] was > 100 µM (inactive). For the same compound, the GI50 [22] was > 100 µM (inactive), the GI50 [23] was > 100 µM (inactive) and the GI50 [24] was > 100 µM (inactive). For the same compound, the GI50 [25] was > 100 µM (inactive), the GI50 [26] was > 100 µM (inactive) and the GI50 [27] was > 100 µM (inactive). For the same compound, the GI50 [28] was > 100 µM (inactive), the GI50 [29] was > 100 µM (inactive) and the GI50 [30] was > 100 µM (inactive). The GI50 [31] was > 100 µM (inactive), the GI50 [32] was > 100 µM (inactive) and the GI50 [33] was > 100 µM (inactive). The GI50 [34] was > 100 µM (inactive), the GI50 [35] was > 100 µM (inactive) and the GI50 [36] was > 100 µM (inactive). The GI50 [37] was > 100 µM (inactive), the GI50 [38] was > 100 µM (inactive) and the GI50 [39] was > 100 µM (inactive). The GI50 [40] was > 100 µM (inactive), the GI50 [41] was > 100 µM and the GI50 [42] was > 100 µM (inactive). The GI50 [43] was > 100 µM (inactive), the GI50 [44] was > 100 µM (inactive) and the GI50 [45] was > 100 µM (inactive). The GI50 [46] was > 100 µM (inactive), the GI50 [47] was > 100 µM (inactive) and the GI50 [48] was > 100 µM (inactive). For the same compound, the GI50 [49] was > 100 µM (inactive), the GI50 [50] was > 100 µM (inactive) and the GI50 [51] was > 100 µM (inactive). For the same compound, the GI50 [52] was > 100 µM (inactive), the GI50 [53] was > 100 µM (inactive) and the GI50 [54] was > 100 µM (inactive). For the same compound, the GI50 [55] was > 100 µM (inactive), the GI50 [56] was > 100 µM (inactive) and the GI50 [57] was > 100 µM (inactive).

With `Cc1ccc2sc3ccc(N)cc3c(=O)c2c1` the GI50 [1] was 51.9 µM (inactive), the GI50 [2] was 30.7 µM (inactive) and the GI50 [3] was 30.2 µM (inactive). The GI50 [4] was 36.9 µM (inactive), the GI50 [5] was 38.5 µM (inactive) and the GI50 [7] was > 100 µM (inactive). For the same compound, the GI50 [8] was 47.2 µM (inactive), the GI50 [9] was 51.9 µM (inactive) and the GI50 [10] was > 100 µM (inactive). The GI50 [11] was 54.5 µM (inactive), the GI50 [12] was 29 µM (inactive) and the GI50 [13] was 26.8 µM (inactive). The GI50 [14] was 26.5 µM (inactive), the GI50 [15] was 14.9 µM (inactive) and the GI50 [16] was 41.6 µM (inactive). The GI50 [17] was > 100 µM (inactive), the GI50 [18] was 81.1 µM (inactive) and the GI50 [19] was 42.5 µM (inactive). The GI50 [21] was 37.8 µM (inactive), the GI50 [22] was > 100 µM (inactive) and the GI50 [23] was 41.3 µM (inactive). For the same compound, the GI50 [24] was 33.8 µM (inactive), the GI50 [25] was 21.1 µM (inactive) and the GI50 [27] was 33.7 µM (inactive). For the same compound, the GI50 [28] was > 100 µM (inactive), the GI50 [29] was 37.6 µM (inactive) and the GI50 [30] was 22.4 µM (inactive). The GI50 [31] was 82.4 µM (inactive), the GI50 [32] was 28.1 µM (inactive) and the GI50 [33] was 81.8 µM (inactive). For the same compound, the GI50 [34] was 11.4 µM (inactive), the GI50 [35] was 53.2 µM (inactive) and the GI50 [58] was 37.2 µM (inactive). The GI50 [36] was 86.7 µM (inactive), the GI50 [37] was 51.9 µM (inactive) and the GI50 [38] was 32.8 µM (inactive). The GI50 [59] was 62.1 µM (inactive), the GI50 [39] was 53 µM (inactive) and the GI50 [40] was 33.8 µM (inactive). The GI50 [41] was 24.8 µM, the GI50 [42] was 63.5 µM (inactive) and the GI50 [43] was 32 µM (inactive). For the same compound, the GI50 [44] was 32.9 µM (inactive), the GI50 [45] was > 100 µM (inactive) and the GI50 [46] was 40.3 µM (inactive). For the same compound, the GI50 [47] was 61.2 µM (inactive), the GI50 [48] was 55.1 µM (inactive) and the GI50 [49] was 30.3 µM (inactive). The GI50 [50] was 53.2 µM (inactive), the GI50 [51] was 90.2 µM (inactive) and the GI50 [52] was 20.7 µM (inactive). The GI50 [53] was 68.2 µM (inactive), the GI50 [54] was > 100 µM (inactive) and the GI50 [55] was 40.4 µM (inactive). For the same compound, the GI50 [56] was 53.6 µM (inactive) and the GI50 [57] was 54.2 µM (inactive).

In the case of `CC(=O)O[C@H]1C(=O)[C@@]2(C)[C@H]([C@H](OC(=O)c3ccncc3)[C@]3(O)C[C@H](OC(=O)[C@H](O)[C@@H](NC(=O)c4ccccc4)c4ccccc4)C(C)=C1C3(C)C)[C@]1(OC(C)=O)CO[C@@H]1C[C@@H]2O`, the GI50 [1] is reported as 14.5 µM (inactive), the GI50 [2] is reported as > 25 µM (inactive) and the GI50 [3] is reported as 1.42 µM (inactive). For the same compound, the GI50 [4] was 0.714 µM (active), the GI50 [5] was 7.01 µM (inactive) and the GI50 [6] was 2.31 µM (inactive). For the same compound, the GI50 [7] was 8.53 µM (inactive), the GI50 [8] was 1.22 µM (inactive) and the GI50 [9] was 2.66 µM (inactive). For the same compound, the GI50 [10] was > 11.6 µM (inactive), the GI50 [11] was 6.81 µM (inactive) and the GI50 [12] was > 25 µM (inactive). For the same compound, the GI50 [13] was 0.877 µM (active), the GI50 [14] was 0.918 µM (active) and the GI50 [15] was > 5.94 µM (inactive). The GI50 [16] was 14.2 µM (inactive), the GI50 [17] was 10 µM (inactive) and the GI50 [18] was > 16.4 µM (inactive). The GI50 [19] was 2.08 µM (inactive), the GI50 [20] was 3.56 µM (inactive) and the GI50 [21] was > 22.3 µM (inactive). For the same compound, the GI50 [22] was 4.51 µM (inactive), the GI50 [23] was 9.14 µM (inactive) and the GI50 [24] was 1.1 µM (active). For the same compound, the GI50 [25] was > 25 µM (inactive), the GI50 [26] was 0.881 µM (active) and the GI50 [27] was 0.471 µM (active). For the same compound, the GI50 [28] was 8.3 µM (inactive), the GI50 [29] was 0.953 µM (active) and the GI50 [30] was > 15.5 µM (inactive). For the same compound, the GI50 [31] was 16.1 µM (inactive), the GI50 [32] was 1.42 µM (inactive) and the GI50 [33] was 12.6 µM (inactive). The GI50 [34] was 1.39 µM (inactive), the GI50 [35] was 0.875 µM (active) and the GI50 [58] was 3.24 µM (inactive). The GI50 [36] was > 20 µM (inactive), the GI50 [37] was 2.3 µM (inactive) and the GI50 [38] was > 12.4 µM (inactive). For the same compound, the GI50 [59] was 1.56 µM (inactive), the GI50 [39] was 11.6 µM (inactive) and the GI50 [40] was 2.44 µM (inactive). For the same compound, the GI50 [41] was > 25 µM, the GI50 [42] was > 25 µM (inactive) and the GI50 [43] was 1.25 µM (inactive). The GI50 [45] was > 11.6 µM (inactive), the GI50 [46] was 0.875 µM (active) and the GI50 [47] was 2.34 µM (inactive). The GI50 [48] was 6.56 µM (inactive), the GI50 [49] was 1.77 µM (inactive) and the GI50 [50] was > 25 µM (inactive). For the same compound, the GI50 [51] was 7.06 µM (inactive), the GI50 [52] was 2.61 µM (inactive) and the GI50 [53] was 1.09 µM (active). For the same compound, the GI50 [54] was > 25 µM (inactive), the GI50 [55] was > 16.9 µM (inactive) and the GI50 [56] was 6.71 µM (inactive). The GI50 [57] was 18 µM (inactive).
